Results published in article PMC8881512 (Nature Communications, 2022).
Where “and” joins values, the source holds several entries; their conditions need not be identical. Equal values may be shown once. Blank lines part the entries; values can stand above or below the compound they belong to.

Columns and labels:
[1] = target: T1, LATS1 (Homo sapiens, UniProt O95835); assay: In vitro LATS1 kinase inhibition assay (HTRF); assay type: biochemical; settings: for IC50: 3000 μM ATP, n = 2; for LATS1 kinase activity: Fig.5b
T1 construct: purchased Signalchem
T1 sequence (O95835 1-1130): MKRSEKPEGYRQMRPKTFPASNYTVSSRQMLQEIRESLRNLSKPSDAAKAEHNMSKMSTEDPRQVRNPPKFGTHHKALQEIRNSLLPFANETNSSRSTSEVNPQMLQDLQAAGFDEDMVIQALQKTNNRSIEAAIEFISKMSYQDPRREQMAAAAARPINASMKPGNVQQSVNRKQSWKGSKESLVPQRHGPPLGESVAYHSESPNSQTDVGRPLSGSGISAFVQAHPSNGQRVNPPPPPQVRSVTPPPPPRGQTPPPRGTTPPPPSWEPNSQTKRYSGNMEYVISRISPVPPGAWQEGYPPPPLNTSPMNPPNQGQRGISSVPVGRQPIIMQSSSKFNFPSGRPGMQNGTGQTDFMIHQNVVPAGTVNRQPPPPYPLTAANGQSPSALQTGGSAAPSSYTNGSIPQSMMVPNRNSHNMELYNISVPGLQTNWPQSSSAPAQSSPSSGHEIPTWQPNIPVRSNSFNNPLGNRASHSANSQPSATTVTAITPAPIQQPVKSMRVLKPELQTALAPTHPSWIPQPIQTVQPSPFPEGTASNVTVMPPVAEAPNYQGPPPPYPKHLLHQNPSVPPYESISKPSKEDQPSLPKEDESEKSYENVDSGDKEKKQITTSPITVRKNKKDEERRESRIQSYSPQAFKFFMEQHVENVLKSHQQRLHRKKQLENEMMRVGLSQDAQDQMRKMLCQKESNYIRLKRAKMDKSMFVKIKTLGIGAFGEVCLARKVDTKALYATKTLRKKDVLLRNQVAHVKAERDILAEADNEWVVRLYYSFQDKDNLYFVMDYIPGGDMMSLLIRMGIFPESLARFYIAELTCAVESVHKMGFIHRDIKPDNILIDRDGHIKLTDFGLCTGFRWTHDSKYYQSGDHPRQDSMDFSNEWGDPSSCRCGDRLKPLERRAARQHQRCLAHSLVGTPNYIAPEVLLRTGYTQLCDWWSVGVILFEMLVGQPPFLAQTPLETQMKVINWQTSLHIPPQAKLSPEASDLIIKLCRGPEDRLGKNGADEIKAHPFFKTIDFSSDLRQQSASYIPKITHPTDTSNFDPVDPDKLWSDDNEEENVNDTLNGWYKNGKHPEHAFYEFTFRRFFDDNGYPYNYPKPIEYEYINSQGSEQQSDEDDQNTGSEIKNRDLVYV
Experimental: The kinase activity of LATS1 and LATS2 were performed based on an adapted and optimised HTRF Kinase Binding assay (Cisbio). Briefly, the concentration-response curves with compound concentration range of 10,000 to 0.17 nM with 3-fold serial dilution and 1X Kinase enzymatic buffer (Cisbio), 1.2 nM LATS1 or LATS2 kinases (Signalchem), 0.5 μM biotinylation labelled YAP peptide (Vivace) were dispensed into 384-well microplates by automated digital dispenser Echo/POD with the final DMSO concentration in all wells at 0.5%. To start the enzymatic reaction, 3000 μM ATP (for LATS1) or 6000 μM ATP (for LATS2) were added using multidrop in a 10-μl volume and incubated for 90 min at 30 °C. Subsequently, 10 μl of HTRF KinEASE detection buffer (Cisbio) containing 31.25 nM acceptor conjugate (streptavidin-XL665) and 1:100 donor conjugate (TK antibody labelled with Eu^3+-Cryptate) mixture were added and incubated at RT for 60 min, and the fluorescence emission at two different wavelengths was measured (615 nm and 665 nm) on Envision. […] The inhibition was calculated by the formula, inhibition % = (HIGH − ratio) × 100/ (High − LOW). HIGH control stands for 0.5% DMSO with kinase and LOW control stands for 0.5% DMSO without kinase. The data was analysed by Xlfit software. The IC50 values were determined by fitting to a standard four-parameter logistic using GraphPad Prism.

[2] = target: T2, AKT1 (Homo sapiens, UniProt P31749); assay: Kinome profiling; assay type: biochemical; settings: VT02956 (5 nM)
T2 construct: LATS1/LATS2 enzymes from Signalchem
T2 sequence (P31749 whole entry): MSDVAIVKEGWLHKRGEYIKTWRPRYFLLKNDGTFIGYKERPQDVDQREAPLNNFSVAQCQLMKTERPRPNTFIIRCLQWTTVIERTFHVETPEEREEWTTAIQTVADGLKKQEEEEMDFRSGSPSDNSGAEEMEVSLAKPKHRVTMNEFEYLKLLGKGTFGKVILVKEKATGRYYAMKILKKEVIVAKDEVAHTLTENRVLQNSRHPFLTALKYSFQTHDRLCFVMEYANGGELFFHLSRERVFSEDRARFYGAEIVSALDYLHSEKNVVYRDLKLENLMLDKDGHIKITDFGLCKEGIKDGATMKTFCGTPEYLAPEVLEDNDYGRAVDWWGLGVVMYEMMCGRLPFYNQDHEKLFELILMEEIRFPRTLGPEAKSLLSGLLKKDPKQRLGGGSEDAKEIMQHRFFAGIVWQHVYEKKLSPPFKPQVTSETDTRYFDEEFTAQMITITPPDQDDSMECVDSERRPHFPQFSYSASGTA

[3] = target: T3, KSR2 (Homo sapiens, UniProt Q6VAB6); assay: Kinome profiling; assay type: biochemical; settings: VT02956 (5 nM), read-out: % enzymatic activity relative to DMSO controls
T3 construct: LATS1/LATS2 enzymes from Signalchem

[4] = test system: melanoma B16 cells; assay: Cell proliferation, B16; assay type: cell-based; settings: 0.5 µM or 2 µM VT02956 for 4 days; Supplementary Fig. 8f
Experimental: (§1) Cell proliferation rates were determined by automated cell counter. In brief, cells were plated at density of 0.1 million cells per well in six-well plate. Cell numbers were counted by the indicated time point as stated in the figure legends.

[5] = target: T4, HGK/MAP4K4 (Homo sapiens, UniProt O95819); assay: Kinome profiling; assay type: biochemical; settings: VT02956 (5 nM), read-out: % enzymatic activity relative to DMSO controls
T4 construct: LATS1/LATS2 enzymes from Signalchem

[6] = target: T5, FER (Homo sapiens, UniProt P16591); assay: Kinome profiling; assay type: biochemical; settings: VT02956 (5 nM), read-out: % enzymatic activity relative to DMSO controls
T5 construct: LATS1/LATS2 enzymes from Signalchem

[7] = target: T6, BLK (Homo sapiens, UniProt P51451); assay: Kinome profiling; assay type: biochemical; settings: VT02956 (5 nM), read-out: % enzymatic activity relative to DMSO controls
T6 construct: LATS1/LATS2 enzymes from Signalchem
T6 sequence (P51451 whole entry): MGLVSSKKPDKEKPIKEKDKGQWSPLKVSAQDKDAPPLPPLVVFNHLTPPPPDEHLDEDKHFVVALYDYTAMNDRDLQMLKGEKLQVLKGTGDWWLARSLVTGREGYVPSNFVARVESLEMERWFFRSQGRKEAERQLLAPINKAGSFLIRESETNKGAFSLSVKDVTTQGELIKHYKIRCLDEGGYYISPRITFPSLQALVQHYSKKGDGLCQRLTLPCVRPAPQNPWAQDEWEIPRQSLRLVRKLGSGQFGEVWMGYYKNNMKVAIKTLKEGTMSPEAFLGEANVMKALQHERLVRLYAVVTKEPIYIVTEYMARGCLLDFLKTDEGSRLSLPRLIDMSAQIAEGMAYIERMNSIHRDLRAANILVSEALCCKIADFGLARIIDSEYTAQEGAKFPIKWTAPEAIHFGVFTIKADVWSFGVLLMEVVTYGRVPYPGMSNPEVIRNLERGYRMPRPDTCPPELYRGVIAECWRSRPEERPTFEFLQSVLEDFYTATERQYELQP

[8] = target: T7, CDK9/cyclin T1 (Homo sapiens, UniProt P50750); assay: Kinome profiling; assay type: biochemical; settings: VT02956 (5 nM), read-out: % enzymatic activity relative to DMSO controls
T7 construct: LATS1/LATS2 enzymes from Signalchem

[9] = target: T8, PKAcg (Homo sapiens, UniProt P22612); assay: Kinome profiling; assay type: biochemical; settings: VT02956 (5 nM), read-out: % enzymatic activity relative to DMSO controls
T8 construct: LATS1/LATS2 enzymes from Signalchem
T8 sequence (P22612 whole entry): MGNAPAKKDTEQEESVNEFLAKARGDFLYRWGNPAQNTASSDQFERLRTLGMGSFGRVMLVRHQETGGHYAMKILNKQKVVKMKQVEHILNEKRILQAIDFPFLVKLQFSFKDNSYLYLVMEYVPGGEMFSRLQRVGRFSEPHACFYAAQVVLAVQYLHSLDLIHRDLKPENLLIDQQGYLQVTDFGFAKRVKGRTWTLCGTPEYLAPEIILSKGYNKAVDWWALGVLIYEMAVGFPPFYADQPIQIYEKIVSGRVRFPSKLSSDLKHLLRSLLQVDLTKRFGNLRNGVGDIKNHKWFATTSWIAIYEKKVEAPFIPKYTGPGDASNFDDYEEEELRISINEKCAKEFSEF

[10] = target: T9, MUSK (Homo sapiens, UniProt O15146); assay: Kinome profiling; assay type: biochemical; settings: VT02956 (5 nM), read-out: % enzymatic activity relative to DMSO controls
T9 construct: LATS1/LATS2 enzymes from Signalchem
T9 sequence (O15146 24-869): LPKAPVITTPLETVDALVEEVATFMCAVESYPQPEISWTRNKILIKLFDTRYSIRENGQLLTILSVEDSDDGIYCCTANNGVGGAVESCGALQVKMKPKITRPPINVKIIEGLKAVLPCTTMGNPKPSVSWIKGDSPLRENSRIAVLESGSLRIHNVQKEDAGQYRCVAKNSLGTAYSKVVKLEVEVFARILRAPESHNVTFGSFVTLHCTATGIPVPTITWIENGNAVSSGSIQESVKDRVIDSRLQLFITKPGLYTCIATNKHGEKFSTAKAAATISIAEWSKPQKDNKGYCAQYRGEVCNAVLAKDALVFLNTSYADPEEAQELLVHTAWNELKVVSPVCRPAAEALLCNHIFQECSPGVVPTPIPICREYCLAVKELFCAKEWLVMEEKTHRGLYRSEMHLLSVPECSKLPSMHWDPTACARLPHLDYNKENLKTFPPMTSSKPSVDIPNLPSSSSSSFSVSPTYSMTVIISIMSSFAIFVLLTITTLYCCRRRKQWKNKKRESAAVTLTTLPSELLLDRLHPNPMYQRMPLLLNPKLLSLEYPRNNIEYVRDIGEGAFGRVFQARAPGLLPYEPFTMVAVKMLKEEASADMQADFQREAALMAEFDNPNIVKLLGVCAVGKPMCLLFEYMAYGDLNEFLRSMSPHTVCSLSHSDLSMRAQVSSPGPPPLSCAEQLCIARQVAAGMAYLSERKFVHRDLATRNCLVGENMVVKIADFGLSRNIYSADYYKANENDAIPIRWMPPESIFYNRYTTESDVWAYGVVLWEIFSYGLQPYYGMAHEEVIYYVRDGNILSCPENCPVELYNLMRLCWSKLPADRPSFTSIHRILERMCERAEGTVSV

[11] = test system: T47D cells; assay: Cell proliferation by cell counting, T47D; assay type: cell-based; settings: 0.5 µM or 2 µM, time course to 8 days; Supplementary Fig. 8c, d
Experimental: as §1

[12] = target: T10, CHK1 (Homo sapiens, UniProt O14757); assay: Kinome profiling; assay type: biochemical; settings: VT02956 (5 nM)
T10 construct: LATS1/LATS2 enzymes from Signalchem
T10 sequence (O14757 whole entry): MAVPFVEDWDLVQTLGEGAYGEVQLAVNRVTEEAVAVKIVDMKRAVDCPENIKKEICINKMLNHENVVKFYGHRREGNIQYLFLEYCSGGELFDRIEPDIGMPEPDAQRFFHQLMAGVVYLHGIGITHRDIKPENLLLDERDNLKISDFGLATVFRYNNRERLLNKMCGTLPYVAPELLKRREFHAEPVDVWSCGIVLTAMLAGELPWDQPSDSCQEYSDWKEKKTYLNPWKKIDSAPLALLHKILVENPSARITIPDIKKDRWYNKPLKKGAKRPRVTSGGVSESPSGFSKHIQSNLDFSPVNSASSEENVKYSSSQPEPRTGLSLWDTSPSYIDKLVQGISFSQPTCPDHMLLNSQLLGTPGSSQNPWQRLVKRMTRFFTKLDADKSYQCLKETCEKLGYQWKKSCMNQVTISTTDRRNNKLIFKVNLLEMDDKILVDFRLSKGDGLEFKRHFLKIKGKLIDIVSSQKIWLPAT

[13] = target: T11, PKMYT1 (Homo sapiens, UniProt Q99640); assay: Kinome profiling; assay type: biochemical; settings: VT02956 (5 nM)
T11 construct: LATS1/LATS2 enzymes from Signalchem
T11 sequence (Q99640 whole entry): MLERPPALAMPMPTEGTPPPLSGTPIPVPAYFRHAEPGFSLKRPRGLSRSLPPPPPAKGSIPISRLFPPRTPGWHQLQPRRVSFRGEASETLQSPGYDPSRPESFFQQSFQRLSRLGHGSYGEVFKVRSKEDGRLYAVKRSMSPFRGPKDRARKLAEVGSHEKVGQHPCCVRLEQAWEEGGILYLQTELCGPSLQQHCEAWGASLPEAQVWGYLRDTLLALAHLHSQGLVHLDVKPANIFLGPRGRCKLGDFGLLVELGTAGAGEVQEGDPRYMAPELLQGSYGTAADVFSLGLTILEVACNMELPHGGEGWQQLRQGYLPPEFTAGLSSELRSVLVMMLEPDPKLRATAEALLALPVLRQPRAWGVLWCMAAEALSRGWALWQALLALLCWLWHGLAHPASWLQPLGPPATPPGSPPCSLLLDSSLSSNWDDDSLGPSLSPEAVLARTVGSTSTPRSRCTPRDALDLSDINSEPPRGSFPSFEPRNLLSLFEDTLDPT

[14] = target: T12, RIPK2 (Homo sapiens, UniProt O43353); assay: Kinome profiling; assay type: biochemical; settings: VT02956 (5 nM), read-out: % enzymatic activity relative to DMSO controls
T12 construct: LATS1/LATS2 enzymes from Signalchem
T12 sequence (O43353 whole entry): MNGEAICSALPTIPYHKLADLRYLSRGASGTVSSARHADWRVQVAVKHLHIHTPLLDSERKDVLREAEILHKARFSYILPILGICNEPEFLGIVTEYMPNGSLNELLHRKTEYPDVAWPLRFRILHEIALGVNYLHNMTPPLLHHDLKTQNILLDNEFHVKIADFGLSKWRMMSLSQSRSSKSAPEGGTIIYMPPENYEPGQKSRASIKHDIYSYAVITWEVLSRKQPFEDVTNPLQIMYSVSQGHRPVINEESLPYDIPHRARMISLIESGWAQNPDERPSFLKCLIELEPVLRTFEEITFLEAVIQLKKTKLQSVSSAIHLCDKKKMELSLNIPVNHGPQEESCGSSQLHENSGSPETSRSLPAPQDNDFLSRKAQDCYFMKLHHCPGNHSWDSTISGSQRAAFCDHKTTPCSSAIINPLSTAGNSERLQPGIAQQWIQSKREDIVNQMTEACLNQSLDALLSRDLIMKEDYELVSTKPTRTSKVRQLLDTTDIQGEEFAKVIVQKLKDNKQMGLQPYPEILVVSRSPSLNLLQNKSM

[15] = target: T13, TYK2 (Homo sapiens, UniProt P29597); assay: Kinome profiling; assay type: biochemical; settings: VT02956 (5 nM)
T13 construct: LATS1/LATS2 enzymes from Signalchem

[16] = target: T14, NEK11 (Homo sapiens, UniProt Q8NG66); assay: Kinome profiling; assay type: biochemical; settings: VT02956 (5 nM), read-out: % enzymatic activity relative to DMSO controls
T14 construct: LATS1/LATS2 enzymes from Signalchem
T14 sequence (Q8NG66 whole entry): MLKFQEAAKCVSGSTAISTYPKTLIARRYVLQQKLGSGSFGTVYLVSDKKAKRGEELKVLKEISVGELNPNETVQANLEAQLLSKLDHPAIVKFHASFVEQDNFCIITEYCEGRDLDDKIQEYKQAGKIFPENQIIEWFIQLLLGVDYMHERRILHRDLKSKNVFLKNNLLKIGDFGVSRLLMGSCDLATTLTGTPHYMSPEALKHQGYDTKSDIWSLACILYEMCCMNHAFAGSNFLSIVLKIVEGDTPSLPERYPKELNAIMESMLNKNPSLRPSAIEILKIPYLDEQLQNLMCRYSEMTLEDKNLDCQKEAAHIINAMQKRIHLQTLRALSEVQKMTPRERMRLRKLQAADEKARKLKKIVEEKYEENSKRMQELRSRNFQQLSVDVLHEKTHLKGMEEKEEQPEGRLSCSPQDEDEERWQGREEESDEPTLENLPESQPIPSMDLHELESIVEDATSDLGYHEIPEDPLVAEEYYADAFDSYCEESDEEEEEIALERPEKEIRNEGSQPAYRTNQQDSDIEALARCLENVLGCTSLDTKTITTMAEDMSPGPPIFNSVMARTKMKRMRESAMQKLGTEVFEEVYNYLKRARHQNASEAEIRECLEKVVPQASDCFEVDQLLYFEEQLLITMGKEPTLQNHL

[17] = target: T15, CDK9/cyclin T2 (Homo sapiens, UniProt P50750); assay: Kinome profiling; assay type: biochemical; settings: VT02956 (5 nM), read-out: % enzymatic activity relative to DMSO controls
T15 construct: LATS1/LATS2 enzymes from Signalchem

inhibition towards LATS ([1]; in vitro, LATS1 and LATS2 (Fig. 5b, c)): showed no inhibition towards LATS
IC50 ([1]; in vitro): > 10000 nM
Structure (SMILES): CCN(CC)c1nc(-c2ccncc2)nc2c(-c3ccc(Cl)cc3)cccc12 [VT02484]

% enzymatic activity relative to DMSO controls [2]: 78%
LATS1 kinase activity ([1]; Conc. 0.00016935 (µM)): 83.5285 and 93.8174
LATS1 kinase activity ([1]; Conc. 0.00050805 (µM)): 56.9778 and 63.1654
LATS1 kinase activity ([1]; Conc. 0.00152416 (µM)): 31.2859 and 31.2259
LATS1 kinase activity ([1]; Conc. 0.00457247 (µM)): 3.14 and 1.742
IC50 ([1]; in vitro): 0.76 nM
remaining activity at 0.005 µM [3]: 83%
remaining activity at 0.005 µM [5]: 85%
remaining activity at 0.005 µM [6]: 78%
remaining activity at 0.005 µM [7]: 78%
remaining activity at 0.005 µM [8]: 80%
remaining activity at 0.005 µM [9]: 28%
remaining activity at 0.005 µM [10]: 85%
% enzymatic activity relative to DMSO controls [12]: 80%
% enzymatic activity relative to DMSO controls [13]: 77%
remaining activity at 0.005 µM [14]: 75%
% enzymatic activity relative to DMSO controls [15]: 78%
remaining activity at 0.005 µM [16]: 82%
remaining activity at 0.005 µM [17]: 74%
Structure (SMILES): NCC1CCN(c2nc(-c3ccncc3)nc3c(C#CCO)cccc23)CC1 [VT02956]
growth of ER negative melanoma B16 cells [4]: had little effect
T47D proliferation [11]: inhibited the proliferation of MCF-7 and T47D cells
